Legend:
NZB/W F1 mice = conditions: lupus prone NZB/W F1 mice; cited from earlier work
MRL/lpr mice = conditions: 6 control animals, 5 on drug, p=0.03; cited from earlier work
NZM mice [1] = test: Serum IL-12 by Luminex, NZM mice (Example 3); format: in vivo, mouse
Experimental: FIG. 48 depicts serum IL-12 concentration in NZM mice. Mean±SEM values for the concentration of mouse serum IL-12 from treated NZM mice at the end of the study.
For the processing of serum samples for cytokine analysis, frozen plasma at −80° C. is thawed on ice, vortexed, and centrifuged for 10 minutes (10,000×g) to remove debris and aggregates. A total of 25-50 μL of serum is used for Luminex assays following the manufacturer's instructions. Ten different mouse cytokines are measured using the mouse cytokine 20-plex bead kit (Invitrogen, Carlsbad, Calif., no. LMC0006). Briefly, filter plates (Millipore, Billerica, Mass., no. MAIPSWU10), are pre-wet with 200 μL of wash solution (kit component) and 25 μL of beads are added per well. Serum samples are diluted and a total volume of 50 μL is added per well (ie, 25 μL of sample serum plus 25 μL of assay diluent as provided by the manufacturer). Plates with beads are incubated for 2 hours at room temperature (RT) on an orbital shaker in the dark. At the end of the incubation, plate(s) are washed twice in kit buffer, secondary biotinylated antibody is added at a 1:10 dilution (100 μL) in biotin diluent provided with the kit. Plates are incubated at RT for 1 hour in the dark then washed twice in kit buffer. Strepavidin in assay diluent is added at 100 μL per well, then incubated for 30 minutes at RT in the dark. The plates are washed 3 times then 100 μL of kit wash solution is added and agitated for 2-3 minutes at RT in the dark. Plates are run immediately following this incubation period on a Luminex xMAP 200 unit with data acquisition and analysis software (Invitrogen, San Diego, Calif., no. MAP0200). All bead washing is performed using a vacuum manifold unit (Pall, Ann Arbor, Mich. no. 5017). For all cytokine Luminex assays, values below the limit of detection set by the lowest point along the standard or set by the manufacturer are considered out of range and are not estimated, but assumed the lowest point along the standard curve for that particular assay.

[2] = in vivo; cited from earlier work
NZM mice [3] = test: Survival, NZM mice, sc/ip dosing (Example 3); format: in vivo, mouse; conditions: Groups 1, 2, and 4
Experimental: FIG. 44 depicts survival of NZM mice across treatment groups for the study duration. NZM mice were treated as outlined in the legend. […] The overall percentage of surviving mice at the 91 day endpoint is listed in parentheses within the legend. * indicates p≦0.05.

NZM mice [4] = test: Total urine protein (proteinuria), NZM mice (Example 3); format: in vivo, mouse; conditions: Groups 1, 2, 4, and 5
Experimental: FIG. 45 depicts total urine protein (proteinuria) in NZM mice. Urine collected from NZM mice was analyzed for total protein content using a rat urinalysis kit.
Urine samples are acid precipitated for total protein analysis. For urine sample preparation, urine samples are centrifuged at 10,000 rpm for 3 minutes using a tabletop micro-centrifuge. 1-50 μL of urine supernatant is added in duplicate. PBS is added to adjust the volume to 50 μL total. For the turbidity assay: 25 μL of 0.1 N HCl is added into blank columns and 250 μL of 3% sulfosalicyclic acid into the test columns. The microplate is incubated for 10 minutes at RT and plates are read using an ELISA reader with single beam at 450 nm. A standard protein solution is prepared from normal mouse sera and is used as a standard for mouse urinary protein assay by turbidity. Standard preparation is as follows: 0, 5, 10, 15, 20, 30, 40, and 50 μL of a 4 mg/mL mouse sera standard protein solution as provided in the kit are added in duplicate into two columns. PBS is added to individual wells to adjust the final volume to 50 μL. Samples for which enough urine remains are used for Uristix® leukouria analysis. For the Uristix® strip assay, strips are laid out and labeled. Twenty microliters of urine are placed onto each test strip square and incubated for at least 30 seconds before the result is recorded. […]

CC(C)C[C@H](NC(=O)[C@H](Cc1ccccc1)NC(=O)c1cnccn1)B(O)O [bortezomib, reference compound]
proteinuria (NZB/W F1 mice): significantly reduced proteinuria
renal pathology (NZB/W F1 mice): improved renal pathology
survival compared to vehicle (NZB/W F1 mice): markedly prolonged survival
survival (MRL/lpr mice): significantly improved survival
serum IL-12 decrease vs vehicle (NZM mice [1]; Group 7, ip): 65.8%
serum IL-12 decrease vs vehicle (NZM mice [1]; Group 8, sc): 75.6%
serious side effects [2]: polyneuropathy, thrombocytopenia and gastrointestinal complications

CC(C)C[C@H](NC(=O)[C@@H](NC(=O)c1cccc(-c2ccccc2)n1)[C@@H](C)O)B(O)O [COMPOUND A, [(1R)-1-[[(2S,3R)-3-hydroxy-2-[6-phenyl-pyridine-2-carbonyl)amino]-1-oxobutyl]amino]-3-methylbutylboronic acid]
serum IL-12 decrease vs vehicle (NZM mice [1]; Group 1 (regimen: Table 42)): 92.8%
serum IL-12 decrease vs vehicle (NZM mice [1]; Group 2 (regimen: Table 42)): 76.6%
serum IL-12 decrease vs vehicle (NZM mice [1]; Group 4 (regimen: Table 42)): 75.7%
serum IL-12 decrease vs vehicle (NZM mice [1]; Group 5 (regimen: Table 42)): 70.8%
survival relative to vehicle (NZM mice [3]): significantly increased survival
proteinuria compared to vehicle (Group 10) and bortezomib ip (Group 7) (NZM mice [4]): reduced proteinuria

From patent US9340559B2, “Proteasome inhibitor delanzomib for use in the treatment of lupus” (Cephalon, Inc., priority 2011, dated 2016)
